We go through 8 compounds from ChEMBL document CHEMBL1130825, “Novel D-ring analogues of podophyllotoxin as potent anti-cancer agents” (1998).

Assay type in all cases: functional
Test [1] concerns HCC 2998. The test is described as follows: In vitro cytotoxicity against human colon cancer HCC 2998 cell line.
Test [2] relates to KM12. Nature of the test: In vitro cytotoxicity against human colon cancer KM 12 cell line.
Test [3] concerns COLO 205. The test is described as follows: In vitro cytotoxicity against human colon cancer COLO 205 cell line.
The subject of test [4] is HCT-15. The test is described as follows: In vitro cytotoxicity against human colon cancer HCT 15 cell line.
Test [5] has as its system HCT-116. The test is described as follows: In vitro cytotoxicity against human colon cancer HCT 116 cell line.
Test [6] deals with HT-29. The test is described as follows: In vitro cytotoxicity against human colon cancer HT 29 cell line.
For test [7], the system named is MDA-N. Nature of the test: In vitro cytotoxicity against human breast cancer MDA-N cell line.
In test [8] the test system is SK-OV-3. Nature of the test: in vitro cytotoxicity against SKOV3 cancer cell line. The note with it: Homo sapiens.
The subject of test [9] is A498. The test is described as follows: in vitro cytotoxicity against A 498 cancer cell line. Conditions: Homo sapiens.
For test [10], the system named is M14. The test is described as follows: in vitro cytotoxicity against M-14 cancer cell line. The note with it: Homo sapiens.
The subject of test [11] is SW-620. Nature of the test: In vitro cytotoxicity against human colon cancer SW 620 cell line.
Test [12] concerns MDA-MB-231. Nature of the test: In vitro cytotoxicity against human breast cancer MDA-MB 231 cell line.
Test [13] concerns DU-145. The test is described as follows: in vitro cytotoxicity against DU-145 cancer cell line. Conditions: Homo sapiens.
In test [14] the test system is MCF7. Nature of the test: In vitro cytotoxicity against human breast cancer MCF-7 cell line.
Test [15] has as its system BT-549. Nature of the test: In vitro cytotoxicity against human breast cancer BT-549 cell line.
Test [16] deals with Hs-578T. The test is described as follows: In vitro cytotoxicity against human breast cancer Hs 578.T cell line.
The test system of test [17] is MDA-MB-435. Nature of the test: In vitro cytotoxicity against human breast cancer MDA-MB 435 cell line.
A short description of test [18]: In vitro cytotoxicity against human breast cancer MCF-7 ADR cell line. Conditions: MCF7.
Test [19] relates to SK-OV-3. Nature of the test: Compound was evaluated for in vitro cytotoxicity against SKOV3 cancer cell line. The note with it: Homo sapiens.
Test [20] deals with MCF7. Nature of the test: in vitro cytotoxicity against MCF-7 ADR cancer cell line. The note with it: Homo sapiens.

Broadly, the GI50 is the concentration that inhibits growth by half. With `COC(=O)[C@@H]1C(c2cc(OC)c(OC)c(OC)c2)c2cc3c(cc2[C@@H]2OC(=O)OC[C@@H]12)OCO3` (some centres not stated), the GI50 in test [1] is 20 µM; in [2], 70 µM; in [3], 2 µM; in [4] it was 10 µM; in test [5] it was over 30 µM; in test [6], over 30 µM.
`CCOC(=O)[C@@H]1C(c2cc(OC)c(OC)c(OC)c2)c2cc3c(cc2[C@@H]2OC(=O)OC[C@@H]12)OCO3` (some centres not stated): the GI50 in test [1] came to 8 µM; in test [2], 6 µM; in test [3], 1.5 µM; in test [4], 0.2 µM; in test [5] it was 0.09 µM; in test [6], 2 µM.
Consider `CCOC(=O)[C@@H]1[C@H](c2cc(OC)c(O)c(OC)c2)c2cc3c(cc2[C@@H]2OC(=O)OC[C@@H]12)OCO3`, for which the GI50 in test [1] was found to be 1.5 µM; in test [2], 0.2 µM; in [3] it was 30 µM; in [4], 0.4 µM; in test [5], 0.6 µM; in test [6], 0.2 µM.
Consider `CCOC(=O)[C@@H]1[C@H](c2cc(OC)c(O)c(OC)c2)c2cc3c(cc2[C@H](O)[C@H]1CO)OCO3`, for which the GI50 was 1.06 µM in [7]; 1.3 µM in test [1]; 0.78 µM in [2]; 3.35 µM in [8]; 1.16 µM in test [3]; 1.1 µM in test [9]. Moreover, the GI50 was determined as 2.1 µM in [10]; 2.07 µM in test [4]; 1.7 µM in [5]; 1.17 µM in [11]; 6.78 µM in test [12]; 1.63 µM in [13]. Moreover, the concentration for 50% growth inhibition (GI50) in test [14] was found to be 2.17 µM; in test [15], 4.91 µM; in [16], 1.2 µM; in test [17] it was 0.84 µM; in test [6] it was 0.88 µM.
In the case of `CCCCOC(=O)[C@@H]1[C@H](c2cc(OC)c(OC)c(OC)c2)c2cc3c(cc2[C@H](O)[C@H]1CO)OCO3`, the GI50 in [7] is 11.5 µM; in [1], 1.8 µM; in [2], 1.86 µM; in [3], 1.9 µM; in test [4] it was 2 µM; in test [5], 3.7 µM. Moreover, the GI50 in test [11] was 2.2 µM; in test [12] it was over 30 µM; in test [18] it was 5.6 µM; in test [14], 2 µM; in [15] it was over 30 µM; in test [17], 1.6 µM. The compound also came in with a GI50 in test [6] of 2.5 µM.
`CCOC(=O)[C@@H]1[C@H](c2cc(OC)c(OC)c(OC)c2)c2cc3c(cc2[C@H](O)[C@H]1CO)OCO3`: the GI50 in test [19] was 29.9 µM; in [7] it was 3.5 µM; in test [1] it was 14 µM; in test [2] it was 8.4 µM; in test [3], 14 µM; in test [9], over 30 µM. The GI50 in test [10] was 14.9 µM; in test [4], 13 µM; in test [5] it was 24 µM; in test [11], 26 µM; in test [12] it was 18 µM; in test [13] it was over 30 µM. For the same compound, the GI50 in test [18] was 14 µM; in [14] it was 23 µM; in [15], over 30 µM; in test [16], 27 µM; in [17], 4.4 µM; in test [6], 17 µM. Further, the GI50 in test [20] stood at 14.3 µM.
On to `COC(=O)[C@@H]1[C@H](c2cc(OC)c(O)c(OC)c2)c2cc3c(cc2[C@@H]2OC(=O)OC[C@@H]12)OCO3`, for which the GI50 in test [1] was 1 µM; in test [2], 0.4 µM; in test [3], 0.2 µM; in test [4], 0.4 µM; in [5], 0.5 µM; in test [6], over 30 µM.
For `COC(=O)[C@@H]1[C@H](c2cc(OC)c(O)c(OC)c2)c2cc3c(cc2[C@H](O)[C@H]1CO)OCO3`, the GI50 worked out at 0.1 µM in test [7]; 0.8 µM in test [1]; 0.11 µM in [2]; 0.34 µM in [8]; 0.1 µM in [3]; 0.4 µM in test [9]. In addition, the GI50 stood at 0.86 µM in [10]; 1.02 µM in test [4]; 0.2 µM in test [5]; 0.34 µM in test [11]; 0.1 µM in test [12]; 0.47 µM in [13]. The GI50 in test [18] worked out at 0.1 µM; in test [14] it was 0.3 µM; in test [15], 0.5 µM; in test [16], 3.12 µM; in [17], 0.1 µM; in test [6], 0.09 µM. Also, the GI50 in test [20] worked out at 0.1 µM.
